Results from US12171229B2, “Heteroaryl-triazole and heteroaryl-tetrazole compounds as pesticides” (BAYER AKTIENGESELLSCHAFT, priority 2018, dated 2024).

Assays:
Assay type in all cases: in vivo
Boophilus microplus = Boophilus microplus injection test; details: Rhipicephalus microplus, 168 h; 20 μg/animal injected into the abdomen; adult engorged female ticks; egg deposition after 7 days; read-out: efficacy (infertile eggs)
Description: Boophilus Microplus—Injection Test Solvent: dimethyl sulfoxide To produce a suitable preparation of active compound, 10 mg of active compound are dissolved in 0.5 ml solvent, and the concentrate is diluted with solvent to the desired concentration. Five adult engorged female ticks (Boophilus microplus) are injected with 1 μl compound solution into the abdomen. The ticks are transferred into replica plates and incubated in a climate chamber. After 7 days egg deposition of fertile eggs is monitored. Eggs where fertility is not visible are stored in a climate chamber till hatching after about 42 days. An efficacy of 100% means all eggs are infertile; 0% means all eggs are fertile.

Ctenocephalides felis = Ctenocephalides felis oral test; details: 48 h, 100 ppm in cattle blood, after 2 days, adult unfed cat fleas
Description: Ctenocephalides Felis—Oral Test
Solvent: dimethyl sulfoxide
To produce a suitable preparation of active compound, 10 mg of active compound are dissolved in 0.5 ml solvent, and the concentrate is diluted with cattle blood to the desired concentration.
Approximately 20 adult unfed cat fleas (Ctenocephalides felis) are placed in flea chambers. The blood chamber, sealed with parafilm on the bottom, are filled with cattle blood supplied with compound solution and placed on the gauze covered top of the flea chamber, so that the fleas are able to suck the blood. The blood chamber is heated to 37° C. whereas the flea chamber is kept at room temperature.
After 2 days mortality in % is determined. 100% means all the fleas have been killed; 0% means none of the fleas have been killed.

Diabrotica balteata = Diabrotica balteata spray test; details: Diabrotica balteata, in Triticum aestivum, 168 h, after 7 days, larvae on wheat seeds, read-out: efficacy (seedlings grown up); for pest or weed control at 80 µg/disc, 250 g/ha: 80 μg/well (=250 g/ha); for pest or weed control at 160 µg/disc, 500 g/ha: 160 μg/well (=500 g/ha)
Description: Diabrotica balteata—Spray Test [table] To produce a suitable preparation of active compound, 1 part by weight of active compound is mixed with the stated amount of solvent, and the concentrate is diluted with water, containing an emulsifier concentration of 1000 ppm, to the desired concentration. Further test concentrations are prepared by dilution with emulsifier containing water. Soaked wheat seeds (Triticum aestivum) are placed in a multiple well plate filled with agar and some water and are incubated for 1 day to germinate (5 seeds per well). The germinated wheat seeds are sprayed with a test solution containing the desired concentration of the active ingredient. Afterwards each unit is infected with 10-20 larvae of the banded cucumber beetle (Diabrotica balteata). After 7 days efficacy in % is determined. 100% means all the seedlings have grown up like in the untreated, uninfected control; 0% means none of the seedlings have grown.

Spodoptera frugiperda = Spodoptera frugiperda spray test; details: 168 h, after 7 days, larvae on maize leaf sections
Description: Spodoptera frugiperda—Spray Test
(§1) To produce a suitable preparation of active compound, 1 part by weight of active compound is mixed with the stated amount of solvents and is diluted with water, containing an emulsifier concentration of 1000 ppm, to the desired concentration. Further test concentrations are prepared by dilution with emulsifier containing water.
Maize (Zea mays) leaf sections are sprayed with a preparation of the active ingredient of the desired concentration. Once dry, the leaf sections are infested with fall armyworm larvae (Spodoptera frugiperda).
After 7 days mortality in % is determined. 100% means all caterpillars have been killed and 0% means none of the caterpillars have been killed.

Myzus persicae [1] = experiment: Myzus persicae oral test; details: 120 h, 4 ppm, after 5 days
Description: Solvent: 100 parts by weight acetone
To produce a suitable preparation of active compound, 1 part by weight of active compound is mixed with the stated amount of solvent, and the concentrate is diluted with water to the desired concentration.
50 μl compound solution is filled in microtiter plates and 150 μl IPL41 insect medium (33%+15% sugar) is added to obtain a total volume of 200 μl per well. Afterwards the plates are sealed with parafilm through which a mixed population of the green peach aphid (Myzus persicae) can suck on the compound preparation.
(§2) After 5 days mortality in % is determined. 100% means all aphids have been killed and 0% means none of the aphids have been killed.

Myzus persicae [2] = experiment: Myzus persicae spray test; details: foliar, 120 h, after 5 days, Chinese cabbage leaf disks
Description: Myzus persicae—Spray Test
as §1
Chinese cabbage (Brassica pekinensis) leaf disks infected with all instars of the green peach aphid (Myzus persicae), are sprayed with a preparation of the active ingredient of the desired concentration.
as §2

Nezara viridula = Nezara viridula spray test; details: 96 h, after 4 days, larvae on barley plants
Description: Nezara viridula—Spray Test
as §1, with “solvent,” for “solvents”, “and the concentrate” for “and”
Barley plants (Hordeum vulgare) infested with larvae of the southern green stink bug (Nezara viridula) are sprayed with a test solution containing the desired concentration of the active ingredient.
After 4 days mortality in % is determined. 100% means all the stink bugs have been killed: 0% means none of the stink bugs have been killed.

[3] = tested on: Aedes aegypti strain MONHEIM; experiment: Aedes aegypti test (AEDSAE surface treatment & contact assay); details: 24 hours after contact, read-out: efficacy (mortality)
Description: Aedes Aegypti Test (AEDSAE Surface Treatment & Contact Assay)
Solvent: Aceton+2000 ppm rapeseed oil methyl ester (RME)
In order to produce a sufficient, active ingredient containing solution it is necessary to solve the test compound in the solvent-mix (acetone at 2 mg/ml/RME 2000 ppm). This solution is pipetted onto a glazed tile and after evaporation of the acetone, adult mosquitoes of the species Aedes aegypti strain MONHEIM are placed onto the dried surface. The exposure time is 30 minutes.
Mortality in percent (%) is determined 24 hours after contact of the insects to the treated surface. 100% mortality means that all tested insects are dead, whereas 0% means that no insect died.

Row | SMILES | pest or weed control at 0.02 mg (Boophilus microplus) [%] | mortality at 100 ppm (Ctenocephalides felis) [%] | pest or weed control at 80 µg/disc, 250 g/ha (Diabrotica balteata) [%] | pest or weed control at 160 µg/disc, 500 g/ha (Diabrotica balteata) [%] | mortality at 100 g/ha (Spodoptera frugiperda) [%] | mortality at 500 g/ha (Spodoptera frugiperda) [%] | mortality at 4 ppm (Myzus persicae [1]) [%] | mortality at 100 g/ha (Myzus persicae [2]) [%] | mortality at 500 g/ha (Myzus persicae [2]) [%] | mortality at 100 g/ha (Nezara viridula) [%] | mortality at 500 g/ha (Nezara viridula) [%] | mortality at 4 mg/m2 ([3]; surface concentration 4 mg/m^2, exposure 30 minutes) [%] | mortality at 20 mg/m2 ([3]; surface concentration 20 mg/m^2, exposure 30 minutes) [%]
1 | C[C@H](NC(=O)c1cc(Cl)cc(C(F)(F)F)c1)c1ncnn1-c1ccc(S(=O)(=O)C(F)(F)F)cn1 [Example I-027, 3-chloro-5-(trifluoromethyl)-N-[(1S)-1-(1-{5-[(trifluoromethyl)sulfonyl]pyridin-2-yl}-1H-1,2,4-triazol-5-yl)ethyl]benzamide] | 100 | 100 | 100 | 100 | 100 | 100 | – | – | – | – | – | – | –
2 | C[C@H](NC(=O)c1cc(Cl)cc(C(F)(F)F)c1)c1ncnn1-c1ccc(NC(=O)c2ccc(F)cc2)cn1 [Example I-036] | 100 | 100 | 100 | 100 | 100 | 100 | 100 | – | – | – | – | – | –
3 | Cc1cc(C(=O)N[C@@H](C)c2ncnn2-c2ccc(C#N)cn2)cc(C(F)(F)F)c1 [Example I-040] | 100 | 100 | 100 | 100 | 100 | 100 | 100 | – | – | – | – | – | –
4 | C[C@H](NC(=O)c1cc(Cl)cc(C(F)(F)F)c1)c1ncnn1-c1ccc(-n2ccc(C(F)(F)F)n2)cn1 [Example I-045, 3-chloro-5-(trifluoromethyl)-N-[(1S)-1-(1-{5-[3-(trifluoromethyl)-1H-pyrazol-1-yl]pyridin-2-yl}-1H-1,2,4-triazol-5-yl)ethyl]benzamide] | 100 | 95 | 100 | 80 | 100 | 100 | – | – | – | – | – | – | –
5 | C[C@H](NC(=O)c1cncc(Br)c1)c1ncnn1-c1ccc(C#N)cn1 [Example I-053] | 100 | 100 | 100 | 100 | – | 100 | – | – | – | – | – | – | –
6 | C[C@H](NC(=O)c1cc(Cl)cc(C(F)(F)F)c1)c1ncnn1-c1ccc(NS(C)(=O)=O)cn1 [Example I-054] | – | – | 100 | 100 | – | – | 100 | 90 | 90 | 90 | 100 | – | –
7 | C[C@H](NC(=O)c1cc(Cl)cc(C(F)(F)F)c1)c1ncnn1-c1ccc(S(C)(=O)=O)cn1 [Example I-062] | 100 | 100 | 100 | 100 | 100 | 100 | – | – | – | – | 100 | – | –
8 | C[C@H](NC(=O)c1cncc(I)c1)c1ncnn1-c1ccc(C#N)cn1 [Example I-063] | 100 | 100 | 100 | 100 | – | 83 | 100 | – | – | – | – | 90 to 100 | 90 to 100
9 | CON=Cc1ccc(-n2ncnc2[C@H](C)NC(=O)c2cc(Cl)cc(C(F)(F)F)c2)nc1 [Example I-065, 3-chloro-N-[(1S)-1-(1-{5-[(methoxyimino)methyl]pyridin-2-yl}-1H-1,2,4-triazol-5-yl)ethyl]-5-(trifluoromethyl)benzamide] | – | – | 100 | 100 | 100 | 100 | – | – | 90 | – | 90 | – | –
10 | C[C@H](NC(=O)c1cc(Cl)cc(C(F)(F)F)c1)c1ncnn1-c1ccc(NC(=O)C(F)(F)F)cn1 [Example I-072] | – | – | 100 | 100 | 83 | 100 | 90 | – | – | – | – | – | –
11 | C[C@H](NC(=O)c1cc(Cl)cc(C(F)(F)F)c1)c1ncnn1-c1ccc(NC(=O)CC#N)cn1 [Example I-073] | 100 | 100 | 100 | 100 | – | – | – | – | 90 | – | – | – | –
12 | C[C@H](NC(=O)c1cc(Cl)cc(C(F)(F)F)c1)c1ncnn1-c1ccc(C(N)=O)cn1 [Example I-100] | – | 100 | 100 | 100 | 100 | 100 | 100 | – | – | – | 100 | – | –
13 | C[C@H](NC(=O)c1cc(Cl)cc(OC(F)(F)F)c1)c1ncnn1-c1ccc(N)cn1 [Example I-101] | – | – | 100 | 100 | – | 100 | 100 | – | – | – | 100 | – | –
14 | C[C@H](NC(=O)c1cc(C(F)(F)F)cc(C(F)(F)F)c1)c1ncnn1-c1nccs1 [Example I-103] | – | – | 100 | 100 | 100 | 100 | 100 | – | – | 100 | 100 | – | –
15 | C[C@H](NC(=O)c1cc(Cl)cc(C(F)(F)F)c1)c1ncnn1-c1ccc(C(=O)N(C)C2CC2)cn1 [Example I-110, 6-(5-{(1S)-1-[3-chloro-5-(trifluoromethyl)benzamido]ethyl}-1H-1,2,4-triazol-1-yl)-N-cyclopropyl-N-methylnicotinamide] | – | – | – | 100 | 100 | 100 | – | 90 | 100 | – | 90 | – | –
16 | C[C@H](NC(=O)c1cc(Cl)cc(C(F)(F)F)c1)c1ncnn1-c1ccc(C(=O)NC2(C#N)CC2)cn1 [Example I-112] | – | – | – | 100 | – | 83 | 90 | – | – | 100 | 100 | – | –
